Measured values published in US5397774A, “Pyrazolopyrimidine and pyrimidinyl bisphosphonic esters as anti-inflammatories” (The Upjohn Company, priority 1993, dated 1995).

System: DTH granuloma (DTH GRA) lesion in mBSA-sensitized mice
Experiment: Delayed Type Hypersensitivity Granuloma Assay (DTH GRA) model for inflammation
Format: in vivo, mouse
Conditions: 10 mg/kg PO, mouse DTH granuloma excised after nine days; for inhibition in vivo at 10 mg/kg: Mus musculus, po, 216 h
Experimental: This assay is described by Dunn, C.
Briefly, mBSA-sensitized mice have a DTH granuloma (DTH GRA) lesion induced by subcutaneously implanting a mBSA-soaked filter which is excised after nine days. Compounds are administered to the mice to determine their effect on the lesions. The results are recorded as percent inhibition. […] Inhibition of 10 to 20% is considered to indicate anti-granuloma activity.
Again, as in Table 1, the results are recorded as percent inhibition. […] Inhibition of 10 to 20% is considered to indicate anti-granuloma activity. […]

Structure (SMILES)	inhibition in vivo at 10 mg/kg (Table 1, Formula 1 compounds) [%]	further results
CCOP(=O)(OCC)C(CCc1cc(C)nc2cc(OCc3ccccc3)nn12)P(=O)(OCC)OCC [g, (3-(2-Benzyloxy-5-methyl-pyrazolo(1,5-a)pyrimidin-7-yl)-propylidene)bisphosphonic acid tetraethyl ester]	44	
CCOP(=O)(OCC)C(CCc1nc(-c2ccccc2)c(Br)c(=O)n1C)P(=O)(OCC)OCC [y, (3-(2-(3-Methyl-4-oxo-5-bromo-6-phenyl-4(3H)-pyrimidinyl))-propylidine)bisphosphonic acid tetraethyl ester]		inhibition in vivo at 10 mg/kg (Table 2, Formula 2 compounds): 7%
CCOP(=O)(OCC)C(CCc1cc(C)nc2c([N+](=O)[O-])c(C)nn12)P(=O)(OCC)OCC [e, (3-(3-Nitro-2,5-dimethyl-pyrazolo(1,5-a)pyrimidin-7-yl)-propylidene)bisphosphonic acid tetraethyl ester]	41	
CCOP(=O)(OCC)C(CCc1nc(-c2ccccc2)cc(=O)n1Cc1ccccc1)P(=O)(OCC)OCC [gg, (3-(2-(3-Benzyl-4-oxo-6-phenyl-4(3H)-pyrimidinyl))-propylidine)bisphosphonic acid tetraethyl ester]		% Inhibition (Table 2, Formula 2 compounds, 10 mg/kg): 20%
